Tests used:
Pseudomonas aeruginosa [1] = assay: Potentiation of meropenem-induced antibacterial activity against Pseudomonas aeruginosa 5621 expressing VIM-2 assessed as meropenem MIC at 100 ug/ml incubated for 18 to 20 hrs in presence of meropenem by CLSI based broth microtiter dilution method (reference value: 64 ug/ml); format: functional; conditions: dose 100 µg/ml, time 18-20 hrs
[2] = Solubility of the compound in water; format: physicochemical
Escherichia coli [3] = assay: Potentiation of meropenem-induced antibacterial activity against Escherichia coli C1580 expressing VIM-2 assessed as meropenem MIC at 10 ug/ml incubated for 18 to 20 hrs by CLSI based broth microtiter dilution method (reference value: 32 ug/ml); format: functional; conditions: dose 10 µg/ml, time 18-20 hrs
[4] = Inhibition of bacterial recombinant full length N-terminal-TEV-His6-tagged VIM-5 expressed in Escherichia coli Transetta using FC-5 as substrate preincubated with enzyme for 10 mins followed by substrate addition by fluorescence based analysis; set-up: species or system Bacteria
[5] = Inhibition of bacterial VIM-2 (27 to 266 residues) expressed in Escherichia coli Transetta (DE3) using FC-5 as substrate preincubated with enzyme for 10 mins followed by substrate addition in presence of 1 uM Zn2+ by fluorescence based analysis; set-up: species or system Bacteria
Escherichia coli [6] = assay: Synergistic antibacterial activity against Escherichia coli C1541 expressing VIM-2 assessed as fractional inhibitory concentration index incubated for 18 to 20 hrs in presence of meropenem by checkerboard microdilution assay; format: functional; conditions: time 18-20 hrs
Pseudomonas aeruginosa [7] = assay: Potentiation of meropenem-induced antibacterial activity against Pseudomonas aeruginosa 5621 expressing VIM-2 assessed as fold reduction in meropenem MIC at 100 ug/ml incubated for 18 to 20 hrs by CLSI based broth microtiter dilution method; format: functional; conditions: dose 100 µg/ml; time 18-20 hrs
[8] = Inhibition of bacterial recombinant full length C-terminal-TEV-His6-tagged VIM-1 expressed in Escherichia coli Transetta using FC-5 as substrate preincubated with enzyme for 10 mins followed by substrate addition by fluorescence based analysis; set-up: species or system Bacteria
Escherichia coli [9] = assay: Synergistic antibacterial activity against Escherichia coli C1541 expressing VIM-2 assessed as fractional inhibitory concentration index incubated for 18 to 20 hrs in presence of meropenem and 1 uM of zinc sulfate by checkerboard microdilution assay; format: functional; conditions: time 18-20 hrs
[10] = Inhibition of bacterial NDM-1 (1 to 270 residues) expressed in Escherichia coli Transetta (DE3) using FC-5 as substrate preincubated with enzyme for 10 mins followed by substrate addition by fluorescence based analysis; set-up: species or system Bacteria
[11] = Inhibition of bacterial VIM-2 (27 to 266 residues) expressed in Escherichia coli Transetta (DE3) using FC-5 as substrate preincubated with enzyme for 10 mins followed by substrate addition by fluorescence based analysis; set-up: species or system Bacteria
[12] = Inhibition of bacterial VIM-2 (27 to 266 residues) expressed in Escherichia coli Transetta (DE3) using FC-5 as substrate preincubated with enzyme for 10 mins followed by substrate addition in presence of 100 uM Zn2+ by fluorescence based analysis; set-up: species or system Bacteria
Escherichia coli [13] = assay: Potentiation of meropenem-induced antibacterial activity against Escherichia coli C1541 expressing VIM-2 assessed as meropenem MIC at 10 ug/ml incubated for 18 to 20 hrs by CLSI based broth microtiter dilution method (reference value: 16 ug/ml); format: functional; conditions: dose 10 µg/ml, time 18-20 hrs
Escherichia coli [14] = assay: Potentiation of meropenem-induced antibacterial activity against Escherichia coli C1541 expressing IMP-1 assessed as meropenem MIC at 10 ug/ml incubated for 18 to 20 hrs by broth microtiter dilution method (reference value: 32 ug/ml); format: functional; conditions: dose 10 µg/ml, time 18-20 hrs
Pseudomonas aeruginosa [15] = assay: Synergistic antibacterial activity against Pseudomonas aeruginosa W35 expressing VIM-2 assessed as fractional inhibitory concentration index incubated for 18 to 20 hrs in presence of meropenem by checkerboard microdilution assay; format: functional; conditions: time 18-20 hrs
Escherichia coli [16] = assay: Synergistic antibacterial activity against Escherichia coli C1541 expressing VIM-2 assessed as fractional inhibitory concentration index incubated for 18 to 20 hrs in presence of meropenem and 100 uM of zinc sulfate by checkerboard microdilution assay; format: functional; conditions: time 18-20 hrs
Escherichia coli [17] = assay: Potentiation of meropenem-induced antibacterial activity against Escherichia coli C1542 expressing VIM-2 assessed as meropenem MIC at 10 ug/ml incubated for 18 to 20 hrs by CLSI based broth microtiter dilution method (reference value: 16 ug/ml); format: functional; conditions: dose 10 µg/ml, time 18-20 hrs
Pseudomonas aeruginosa [18] = assay: Potentiation of meropenem-induced antibacterial activity against Pseudomonas aeruginosa W35 expressing VIM-2 assessed as meropenem MIC at 100 ug/ml incubated for 18 to 20 hrs in presence of meropenem by CLSI based broth microtiter dilution method (reference value: 64 ug/ml); format: functional; conditions: dose 100 µg/ml, time 18-20 hrs
Escherichia coli [19] = assay: Potentiation of meropenem-induced antibacterial activity against Escherichia coli C1541 expressing IMP-1 assessed as fold reduction in meropenem MIC at 10 ug/ml incubated for 18 to 20 hrs by CLSI based broth microtiter dilution method; format: functional; conditions: dose 10 µg/ml; time 18-20 hrs
Escherichia coli [20] = assay: Potentiation of meropenem-induced antibacterial activity against Escherichia coli C1541 expressing VIM-2 assessed as fold reduction in meropenem MIC at 10 ug/ml incubated for 18 to 20 hrs by CLSI based broth microtiter dilution method; format: functional; conditions: dose 10 µg/ml; time 18-20 hrs
Escherichia coli [21] = assay: Potentiation of meropenem-induced antibacterial activity against Escherichia coli C1580 expressing VIM-2 assessed as fold reduction in meropenem MIC at 10 ug/ml incubated for 18 to 20 hrs by CLSI based broth microtiter dilution method; format: functional; conditions: dose 10 µg/ml; time 18-20 hrs
Pseudomonas aeruginosa [22] = assay: Potentiation of meropenem-induced antibacterial activity against Pseudomonas aeruginosa W35 expressing VIM-2 assessed as fold reduction in meropenem MIC at 100 ug/ml incubated for 18 to 20 hrs by CLSI based broth microtiter dilution method; format: functional; conditions: dose 100 µg/ml; time 18-20 hrs
Escherichia coli [23] = assay: Potentiation of meropenem-induced antibacterial activity against Escherichia coli C1542 expressing VIM-2 assessed as fold reduction in meropenem MIC at 10 ug/ml incubated for 18 to 20 hrs by CLSI based broth microtiter dilution method; format: functional; conditions: dose 10 µg/ml; time 18-20 hrs
[24] = Inhibition of bacterial IMP-1 (1 to 246 residues) expressed in Escherichia coli Transetta (DE3) using FC-5 as substrate preincubated with enzyme for 10 mins followed by substrate addition by fluorescence based analysis; set-up: species or system Bacteria

| Structure (SMILES) | MIC (Pseudomonas aeruginosa [1]) [µg/mL] | MIC (Escherichia coli [3]) [µg/mL] | IC50 [4] [µM] | fold change (FC) (Pseudomonas aeruginosa [7]) | IC50 [8] [µM] | IC50 [10] [µM] | IC50 [11] [µM] | MIC (Escherichia coli [13]) [µg/mL] | MIC (Escherichia coli [14]) [µg/mL] | MIC (Escherichia coli [17]) [µg/mL] | MIC (Pseudomonas aeruginosa [18]) [µg/mL] | fold change (FC) (Escherichia coli [19]) | fold change (FC) (Escherichia coli [20]) | fold change (FC) (Escherichia coli [21]) | fold change (FC) (Pseudomonas aeruginosa [22]) | fold change (FC) (Escherichia coli [23]) | IC50 [24] [µM] | other results |
| --- | --- | --- | --- | --- | --- | --- | --- | --- | --- | --- | --- | --- | --- | --- | --- | --- | --- | --- |
| Nc1nc2ccc(Cn3ccnc3C(=O)O)cc2s1 | 64 | < 0.25 | 0.38 | 1 | 13.6 | 178 | 0.019 | < 0.25 | 32 | < 0.25 | 16 | 1 | >64 | >128 | 4 | >64 | 14.4 | solubility [2]: < 2500 µg/mL; IC50 [5]: 0.014 µM; fractional inhibitory concentration index (FICI) (Escherichia coli [6]): 0.02; fractional inhibitory concentration index (FICI) (Escherichia coli [9]): 0.02; IC50 [12]: 0.076 µM; fractional inhibitory concentration index (FICI) (Pseudomonas aeruginosa [15]): 0.125; fractional inhibitory concentration index (FICI) (Escherichia coli [16]): 0.03 |
| NCc1ccc(Cn2ccnc2C(=O)O)cc1 | 32 | 16 | 18.2 | 2 | 8.55 | 165 | 3.89 | 8 | 32 | 16 | 16 | 1 | 2 | 2 | 4 | 1 | 75.5 |  |
| O=C(O)c1nccn1Cc1ccc(O)cc1 | 64 | 4 | 1.12 | 1 | 5.04 | 118 | 0.17 | 1 | 32 | < 0.25 | 16 | 1 | 16 | 8 | 4 | >64 | 9.55 |  |
| COc1ccc(Cn2ccnc2C(=O)O)cc1 | 64 | 1 | 0.84 | 1 | 13 | 157 | 0.38 | 0.5 | 32 | < 0.25 | 16 | 1 | 32 | 32 | 4 | >64 | 10.9 |  |
| Nc1nc2c(Cn3ccnc3C(=O)O)cccc2s1 | 64 | 1 | 1.04 | 1 | 1.89 | 131 | 0.16 | 0.5 | 32 | < 0.25 | 64 | 1 | 32 | 32 | 1 | >64 | 217 |  |
| N#Cc1ccc(Cn2ccnc2C(=O)O)cc1 | 64 | 1 | 0.12 | 1 | 8.69 | 227 | 0.29 | < 0.25 | 32 | < 0.25 | 32 | 1 | >64 | 32 | 2 | >64 | 30.1 |  |
